Measured values reported in patent US9695128B2, “Ethynyl derivatives” (Hoffmann-La Roche Inc., priority 2014, dated 2017).

How the values were obtained:
[1] = target: recombinant human mGlu4 expressed in HEK293 cells (Homo sapiens (Human), UniProt Q14833); test: Ca2+ mobilization in vitro assay, mGlu4 PAM (with EC20 of L-AP4); type: cell-based; settings: for Emax: HEK293, maximal response in % of the maximal stimulatory effect obtained with saturating concentrations of L-AP4, read-out: Eff. (%); for EC50: human mGlu4 in HEK293 cells, Ca2+ mobilization, L-AP4 at EC20, read-out: EC50 (nM) mGlu4PAM
Protocol: Determination of EC50 Values Using a Ca2+ Mobilization in vitro Assay on Recombinant Human mGlu4 Expressed in HEK293 Cells:
A monoclonal HEK-293 cell line stably transfected with a cDNA encoding for the human mGlu4 receptor was generated; for the work with mGlu4 Positive Allosteric Modulators (PAMs), a cell line with low receptor expression levels and low constitutive receptor activity was selected to allow the differentiation of agonistic versus PAM activity. Cells were cultured according to standard protocols (Freshney, 2000) in Dulbecco's Modified Eagle Medium with high glucose supplemented with 1 mM glutamine, 10% (vol/vol) heat-inactivated bovine calf serum, Penicillin/Streptomycin, 50 μg/ml hygromycin and 15 μg/ml blasticidin (all cell culture reagents and antibiotics from Invitrogen, Basel, Switzerland). • About 24 hrs before an experiment, 5×10^4 cells/well were seeded in poly-D-lysine coated, black/clear-bottomed 96-well plates. The cells were loaded with 2.5 μM Fluo-4AM in loading buffer (1×HBSS, 20 mM HEPES) for 1 hr at 37° C. and washed five times with loading buffer. The cells were transferred into a Functional Drug Screening System 7000 (Hamamatsu, Paris, France), and 11 half logarithmic serial dilutions of test compound at 37° C. were added and the cells were incubated for 10-30 min. with on-line recording of fluorescence. Following this pre-incubation step, the agonist (2S)-2-amino-4-phosphonobutanoic acid (L-AP4) was added to the cells at a concentration corresponding to EC20 with on-line recording of fluorescence; in order to account for day-to-day variations in the responsiveness of cells, the EC20 of L-AP4 was determined immediately ahead of each experiment by recording of a full dose-response curve of L-AP4.
Responses were measured as peak increase in fluorescence minus basal (i.e. fluorescence without addition of L-AP4), normalized to the maximal stimulatory effect obtained with saturating concentrations of L-AP4. Graphs were plotted with the % maximal stimulatory using XLfit, a curve fitting program that iteratively plots the data using Levenburg Marquardt algorithm. The single site competition analysis equation used was y=A+((B−A)/(1+((x/C)D))), where y is the % maximal stimulatory effect, A is the minimum y, B is the maximum y, C is the EC50, x is the log 10 of the concentration of the competing compound and D is the slope of the curve (the Hill Coefficient). From these curves the EC50 (drug concentration at which 50% of the maximal receptor activation was achieved), the Hill coefficient as well as the maximal response in % of the maximal stimulatory effect obtained with saturating concentrations of L-AP4 were calculated (see FIG. 1).
A depression of the signal observed after addition of the EC20 concentration of L-AP4 was indicative of an inhibitory activity of the test compound.

[2] = tested on: mice treated with MPTP; settings: cited from earlier work
[3] = tested on: marble burying test in mice; settings: reported by Addex 2010; cited from earlier work
[4] = tested on: EPM in mice; settings: reported by Addex 2010; cited from earlier work
[5] = tested on: EPM in rats; settings: cited from earlier work
[6] = tested on: 6-OHDA rodent model of PD; settings: cited from earlier work

Sequence of recombinant human mGlu4 expressed in HEK293 cells (Q14833 33-912): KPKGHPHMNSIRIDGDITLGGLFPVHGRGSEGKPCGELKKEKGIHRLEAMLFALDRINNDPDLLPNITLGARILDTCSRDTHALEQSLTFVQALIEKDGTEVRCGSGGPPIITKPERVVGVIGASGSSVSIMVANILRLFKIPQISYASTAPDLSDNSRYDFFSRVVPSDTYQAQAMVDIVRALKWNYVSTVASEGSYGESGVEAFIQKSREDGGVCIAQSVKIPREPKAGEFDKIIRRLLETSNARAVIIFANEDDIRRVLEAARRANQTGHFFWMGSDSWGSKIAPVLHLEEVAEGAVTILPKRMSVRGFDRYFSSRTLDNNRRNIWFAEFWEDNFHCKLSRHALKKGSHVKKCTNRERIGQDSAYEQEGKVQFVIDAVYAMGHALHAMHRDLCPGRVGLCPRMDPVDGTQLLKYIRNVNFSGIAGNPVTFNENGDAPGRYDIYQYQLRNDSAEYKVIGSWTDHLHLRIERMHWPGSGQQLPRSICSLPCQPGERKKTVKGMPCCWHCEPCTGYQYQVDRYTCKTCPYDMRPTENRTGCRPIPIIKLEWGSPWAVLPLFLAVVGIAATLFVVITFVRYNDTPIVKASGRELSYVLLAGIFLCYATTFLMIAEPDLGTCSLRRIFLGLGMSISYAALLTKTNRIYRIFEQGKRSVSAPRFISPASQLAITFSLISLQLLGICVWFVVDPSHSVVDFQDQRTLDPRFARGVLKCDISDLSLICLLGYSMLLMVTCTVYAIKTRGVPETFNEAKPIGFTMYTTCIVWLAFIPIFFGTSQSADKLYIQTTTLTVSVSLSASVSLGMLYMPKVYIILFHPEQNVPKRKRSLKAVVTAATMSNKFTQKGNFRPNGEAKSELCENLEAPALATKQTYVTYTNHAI

Emax [1] [%] | EC50 [1] [nM] | SMILES | other results
99 | 56 | O=C1C2Cc3ccccc3CN2C(=O)N1c1c(F)cc(C#Cc2ccccc2)cc1F (racemic) [Example 9, (10aRS)-2-[2,6-Difluoro-4-(2-phenylethynyl)phenyl]-10,10a-dihydro-5H-imidazo[1,5-b]isoquinoline-1,3-dione] | –
110 | 74 | O=C1C2CCc3ccccc3N2C(=O)N1c1c(F)cc(C#Cc2ccccc2)cc1F (racemic) [Example 6, (3aRS)-2-[2,6-Difluoro-4-(2-phenylethynyl)phenyl]-4,5-dihydro-3aH-imidazo[1,5-a]quinoline-1,3-dione] | –
103 | 188 | O=C1C2Cc3ccccc3N2C(=O)N1c1c(F)cc(C#Cc2ccccc2)cc1F (racemic) [Example 5, (3aRS)-2-[2,6-Difluoro-4-(2-phenylethynyl)phenyl]-3a,4-dihydroimidazo[1,5-a]indole-1,3-dione] | –
222 | 242 | CC1(C)C(=O)N(c2c(F)cc(C#Cc3ccccc3)cc2F)C(=O)N1c1ccccc1 [Example 7, 3-[2,6-Difluoro-4-(2-phenylethynyl)phenyl]-5,5-dimethyl-1-phenyl-imidazolidine-2,4-dione] | –
113 | 370 | O=C1CN(C2CC2)C(=O)N1c1c(F)cc(C#Cc2ccccc2)cc1F [Example 12, 1-Cyclopropyl-3-[2,6-difluoro-4-(2-phenylethynyl)phenyl]imidazolidine-2,4-dione] | –

Further lines, the compound ahead of its results:

SMILES | Emax [1] [%] | EC50 [1] [nM] | other results
CC1COCC2C(=O)N(c3c(F)cc(C#Cc4ccccc4)cc3F)C(=O)N12 (racemic) [Example 4, (5RS,8aRS)-2-[2,6-Difluoro-4-(2-phenylethynyl)phenyl]-5-methyl-5,6,8,8a-tetrahydroimidazo[5,1-c][1,4]oxazine-1,3-dione] | 188 | 204 | –
CC1CCCC2C(=O)N(c3ccc(C#Cc4ccccc4)cc3Cl)C(=O)N12 (racemic) [Example 10, (5RS,8aRS)-2-[2-Chloro-4-(2-phenylethynyl)phenyl]-5-methyl-6,7,8,8a-tetrahydro-5H-imidazo[1,5-a]pyridine-1,3-dione] | 232 | 256 | –
CC(C)N1C(=O)N(c2c(F)cc(C#Cc3ccccc3)cc2F)C(=O)C12COC2 [Example 13, 7-[2,6-Difluoro-4-(2-phenylethynyl)phenyl]-5-isopropyl-2-oxa-5,7-diazaspiro[3.4]octane-6,8-dione] | 100 | 230 | –
CC(C)N1CC(=O)N(c2c(F)cc(C#Cc3ccccc3)cc2F)C1=O [Example 1, 3-[2,6-Difluoro-4-(2-phenylethynyl)phenyl]-1-isopropyl-imidazolidine-2,4-dione] | 154 | 441 | –
O=C(Nc1ccccc1)C12CC1/C(=N\O)c1ccccc1O2 (single isomer, unassigned; (-)) [(−)-PHCCC] | – | – | nigrostriatal degeneration [2]: reduced nigrostriatal degeneration
Cc1ccnc(Nc2nc(-c3cn[nH]c3)c(C)s2)n1 [ADX88178] | – | – | activity in marble burying test [3]: active; activity in EPM [4]: active; profile in rat EPM test ([5]; rat, after oral dosing): anxiolytic-like profile; activity in EPM ([5]; rats, reported by Addex 2010): active
CC(C)N1C(=O)N(c2c(F)cc(C#Cc3ccccc3)cc2F)C(=O)C1C (racemic) [Example 2, (5RS)-3-[2,6-Difluoro-4-(2-phenylethynyl)phenyl]-1-isopropyl-5-methyl-imidazolidine-2,4-dione] | 107 | 104 | –
N[C@@H](CCP(=O)(O)O)C(=O)O [L-AP4, (2S)-2-amino-4-phosphonobutanoic acid] | – | – | neuroprotective effects [6]: demonstrated neuroprotective effects
CC(C)(C)N1CC(=O)N(c2c(F)cc(C#Cc3ccccc3)cc2F)C1=O [Example 8, 1-tert-Butyl-3-[2,6-difluoro-4-(2-phenylethynyl)phenyl]imidazolidine-2,4-dione] | 143 | 222 | –
CC(C)N1C(=O)N(c2c(F)cc(C#Cc3ccccc3)cc2F)C(=O)C1(C)C [Example 3, 3-[2,6-Difluoro-4-(2-phenylethynyl)phenyl]-1-isopropyl-5,5-dimethyl-imidazolidine-2,4-dione] | 98 | 286 | –
CC1CCCC2C(=O)N(c3c(F)cc(C#Cc4cccnc4)cc3Cl)C(=O)N12 (racemic) [Example 11, (5RS,8aRS)-2-[2-Chloro-6-fluoro-4-[2-(3-pyridyl)ethynyl]phenyl]-5-methyl-6,7,8,8a-tetrahydro-5H-imidazo[1,5-a]pyridine-1,3-dione] | 140 | 180 | –
